Legend:
Cytotoxicity assay (MTT) = format: cell-based, African green monkey (Cercopithecus aethiops); settings: African green monkey, free (not encapsulated), Vero cells
Protocol: Initially, we evaluated the influence of liposomes on cell viability. For this, monolayers of Vero cells (10^4 cells/mL) were incubated with several concentrations of 2-aminomethyl-3-hydroxy-1,4 naphthoquinone derivatives that either were or were not encapsulated in the liposome (0.5 to 10 μM) for 48 h at 37 °C (Table 2). Following this, 1 mg/mL of 3-(4,5-Dimethylthiazol-2-yl)-2,5 Diphenyl Tetrazolium Bromide was added to each well for 4 h at 37 °C and the resulting purple formazan was followed at 570 nm. Since liposomes are considered an excellent delivery system, it may be reasonable for the liposome to increase the cytotoxic effect on cells.
Vero cells cultivated in 96-multiwell plates (1 × 10^4 cells/well) were incubated with liposomes coupled to 2-aminomethyl-3-hydroxy-1,4-naphthoquinones in different concentrations (0.5, 1, 5 and 10 μM) for 48 h at 37 °C and 5% CO2 atmosphere. Then, 50 μL of 3-(4,5-dimethylthiazol-2-yl)-2,5 diphenyl MTT (1 mg/mL, Sigma-Aldrich, St Louis, MO, USA) was added to each well for 4 h at 37 °C [48]. The MTT reduction in living cells creates formazan, a purple compound that is absorbed at 570 nm. The 50% cytotoxic concentration (CC50) was calculated by linear regression analysis of the dose–response curves.

HSV-1 strain SC-16 = test: Yield reduction assay; format: cell-based, Herpes Simplex Virus 1; settings: for EC50: Human alphaherpesvirus 1, SC16; for SI (CC50/EC50 ratio): free (non-encapsulated) derivatives, concentrations up to 10 μM
Protocol: Briefly, after incubation with HSV-1 (MOI of 0.1) for 1 h at 37 °C, cells were washed with MEM 5% FCS and incubated with acyclovir, […] from 0.01 to 10 μM for 24 h in atmosphere, with 5% CO2 at 37 °C. After the dilution (1:10) of the viral suspension, new 24-well plates were used to determine the EC50 values, based on viral control.
For all antiviral assays, strain SC-16 HSV-1 was used at a multiplicity of infection (MOI) of 0.1 to infect Vero cells at 3 × 10^5 cells/well using a modified yield reduction assay. All aminomethylnaphthoquinone derivatives were previously diluted in pre-chilled MEM with 5% FCS.
To determine the HSV-1 title, Vero cells maintained in 24-multiwell plates (3 × 10^5 cell/well) were infected with HSV-1 strain SC-16 ([…]) for 1 h at 37 °C and 5% CO2 atmosphere.
After the removal of the viral inoculum, cells were treated with 0.01 µM to 10 µM of compound 1, 2, 3 and ACV encapsulated in liposomes for 24 h at 37 °C and 5% CO2 atmosphere. Then, the cells were subjected to three cycles of freezing and thawing and the inoculum diluted (1:10) to a new infection in 24-multiwell plates (10^5 cells/well) for 1 h at 37 °C and 5% CO2 atmosphere. The cells were covered with MEM 2X, 5% FCS and 2% methylcellulose for 48h at 37 °C and the viral title was determined by the number of viral plaque units per mL (PFU/mL). EC50 values, which means the drug concentration able to inhibit 50% of the viral plaque formation, were determined by linear regression compared to the untreated infected control.

BALB/c = tested on: BALB/c; design: method as in earlier work; settings: oral administration, ref [37]; cited from earlier work
HSV-1 = tested on: HSV-1; design: method as in PMID 24493066, PMID 26913545; settings: free compounds, previous studies against HSV-1; ref [36],[38]; cited from earlier work

Row | Compound | CC50 at 48 h (Cytotoxicity assay (MTT)) | EC50 (HSV-1 strain SC-16) | SI (CC50/EC50 ratio) (HSV-1 strain SC-16) | Effect on transaminases level or kidneys functions (BALB/c) | SI (HSV-1)
1 | O=C1C(O)=C(C(NCc2ccccc2)c2ccc([N+](=O)[O-])cc2)C(=O)c2ccccc21 (stereo not drawn) [compound 3] | 17 ± 2 µM | 3.1 µM | 5.48 |  | 
2 | CCCCNC(C1=C(O)C(=O)c2ccccc2C1=O)c1ccc(Cl)cc1Cl (stereo not drawn) [compound 1] | 19 ± 1 µM | 1.98 ± 0.3 µM | 9.6 | no effect on transaminases level or kidneys functions | 
3 | O=C1C(O)=C(C(NCc2ccccc2)c2ccc(Cl)cc2Cl)C(=O)c2ccccc21 (stereo not drawn) [compound 2] | 22 ± 2 µM | 1.06 ± 0.49 µM | 20.75 |  | 
4 | Nc1nc2c(ncn2COCCO)c(=O)[nH]1 [Acyclovir, acyclovir, reference compound] | 15 ± 1 µM |  |  |  | 0.80

From paper PMC8586984, “Antiviral Potential of Naphthoquinones Derivatives Encapsulated within Liposomes” (Molecules, 2021)
